From article PMC7766327, “Inhibition of Pneumolysin Cytotoxicity by Hydrolysable Tannins” (Antibiotics, 2020)

Key:
Ply = system: Ply; set-up: method as in PMID 15928084; settings: cited from earlier work
pneumolysin (Ply) [1] = biological target: T1, pneumolysin (Ply) (Streptococcus pneumoniae serotype 2, UniProt Q04IN8); assay: cell-based; type: cell-based
T1 construct: made in house; host or cells: E. coli BL21(DE3)
Protocol: Native human erythrocytes were taken into EDTA tubes. The erythrocytes were washed three times with PBS (0.15 M NaCl, 2.7 mM KCl, 8.1 mM Na2HPO4 and 1.5 mM KH2PO4) by centrifugation at 700× g for 10 min. The purified erythrocytes were stored at +4 °C. Erythrocytes (1% v/v) in PBS were mixed with 1 nM Ply and dilution series of polyphenol inhibitors in 96-well microtiter plates. The reaction was incubated for 30 min at 37 °C. The plates were centrifuged, and the supernatant was pipetted into flat-bottomed microtiter plates to measure the absorbance at 570 nm (VICTOR X4, PerkinElmer, Turku, Finland) of the released hemoglobin from lysed erythrocytes. The absorbances of triplicate measurements are presented as a function of inhibitor concentration. The IC50 values were calculated with Origin data analysis software (2016, OriginLab Corporation, Northampton, MA, USA).

pneumolysin (Ply) [2] = biological target: T1, pneumolysin (Ply); assay: Precipitation assay of pneumolysin-tannin interaction; type: binding
Protocol: The precipitation assay with tannins was done as described previously with bovine serum albumin [22]. First, 10 μM of Ply and dilution series of polyphenols (5–1000 µM) were incubated in a Na-acetate buffer (200 mM NaCl and 50 mM CH3COONa; pH 5.0) at 25 °C for 30 min with shaking. The reactions were carried out in Multiskan Ascent plate reader (Labsystems, Vantaa, Finland) and the precipitation was measured at 414 nm. The minimum concentration precipitating Ply was calculated with Origin data analysis software (2016, OriginLab Corporation, Northampton, MA, USA).

pneumolysin (Ply) [3] = biological target: T1, pneumolysin (Ply); assay: Pneumolysin oligomerization assay using erythrocytes; type: cell-based
Protocol: For the oligomerization assay, 100 nM Ply (3 µg), 1% (v/v) erythrocytes and 100 µM PGG in PBS were incubated for 2 min at 25 °C and were centrifuged at 16,000× g for 30 min at +7 °C. The pellet containing intact erythrocytes and the membranes from lysed cells were suspended into the water to complete the lysis and recentrifuged at 16,000× g for 30 min. The membranes were suspended into an SDS-PAGE sample buffer (60 mM Tris-HCl, pH 6.8; 2% SDS; 0.001% bromophenol blue; 0.5% β-mercaptoethanol) without incubation at 95 °C and the proteins were separated in 6% SDS-PAGE gel. The gel was stained with Coomassie blue (40% methanol; 10% acetic acid; 0.25% Brilliant blue R-250) and destained in 20% methanol and 5% acetic acid overnight. The proteins were transferred to polyvinyldifluoride (PVDF) membrane for 30 min, 25 V in SDS-PAGE running buffer (25 mM Tris, 190 mM glycine, 0.1% SDS) using the Trans-Blot Turbo Transfer System (Bio-Rad Laboratories Inc., Hercules, CA, USA). The membrane was blocked with 5% (w/v) defatted milk powder in TBS-Tween (10 mM Tris pH 7.5; 150 mM NaCl; 0.05% Tween 20) for 30 min at 25 °C. The His-tagged Ply was detected with anti-His antibody (1:5000 dilution, Sigma-Aldrich, St. Louis, MO, USA) and horseradish […] anti-mouse antibody (1:10,000 dilution, DakoCytomation, Glostrup, Denmark). […]

pneumolysin (Ply) [4] = biological target: T1, pneumolysin (Ply); assay: A549 cell cytotoxicity assay (LDH release); type: cell-based; settings: 2 nM Ply, A549 cells, 2 h
Protocol: For the A549 cell cytotoxicity assay, 5000 cells/well of A549 cells were grown in Dulbecco’s modified Eagle Medium, DMEM (Thermo Fischer Scientific Inc., Waltham, MA, USA), 2 mM glutamine and 10% fetal calf serum (FCS) for 48 h in 96-well microtiter plates. Cells were washed with PBS and dilutions of PGG (0, 125, 250, 500, 1000 and 2000 nM) and 2 nM Ply in PBS were added to the wells and they were incubated for 2 h at 37 °C in 5% CO2 atmosphere. Ply cytotoxicity was determined with the Cytotoxicity Detection Kit^PLUS (Roche Diagnostics GmbH, Mannheim, Germany) according to the manufacturer’s instructions. The released LDH was measured at A490. Complete lysis control was measured in the presence of 0.02% Triton X-100, and for background measurements, cells were incubated without Ply. The values were normalized by calculating using the equation (A490 Ply+inhibitor − A490 Background)/(A490 Triton X-100 − A490 Background)(1)

T1 sequence (Q04IN8 whole entry): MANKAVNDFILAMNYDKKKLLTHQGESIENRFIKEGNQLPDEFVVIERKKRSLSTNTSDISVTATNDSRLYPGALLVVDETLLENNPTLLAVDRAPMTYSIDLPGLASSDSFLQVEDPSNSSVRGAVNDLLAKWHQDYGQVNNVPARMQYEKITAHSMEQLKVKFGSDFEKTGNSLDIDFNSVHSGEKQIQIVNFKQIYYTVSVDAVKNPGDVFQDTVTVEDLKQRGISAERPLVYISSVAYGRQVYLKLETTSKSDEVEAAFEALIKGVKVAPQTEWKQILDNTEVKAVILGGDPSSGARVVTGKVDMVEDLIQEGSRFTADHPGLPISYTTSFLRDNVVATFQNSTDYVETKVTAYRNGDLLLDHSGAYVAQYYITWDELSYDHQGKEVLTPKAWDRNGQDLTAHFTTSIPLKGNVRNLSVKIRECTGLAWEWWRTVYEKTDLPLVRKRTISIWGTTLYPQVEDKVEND

Row | SMILES | Concentration required for inhibition of Ply hemolytic activity (Ply) | Hemolysis Inhibition Inhibitory Power (pneumolysin (Ply) [1]) | IC50 (pneumolysin (Ply) [1]; Hemolysis Inhibition IC50, 1 nM Ply, 1% human erythrocytes, 30 min 37 °C, logistic fit) | IC50 (pneumolysin (Ply) [1]; IC50 (screening with hemolysis assays), estimated from the inhibition curves, two-fold dilutions of tannins) | Inhibitor class in hemolysis inhibition assay (pneumolysin (Ply) [1]; classification by IC50 from two-fold dilutions) | Minimum Precipitating Concentration (pneumolysin (Ply) [2]; 10 μM Ply, Na-acetate buffer pH 5.0, 25 °C, 30 min, absorbance 414 nm) | Precipitation Relative Power (pneumolysin (Ply) [2]; fold compared to vescalagin (=1)) | Fold higher precipitating concentration compared to hemolysis IC50 (pneumolysin (Ply) [2]; minimum precipitating concentration vs hemolysis IC50) | Ply oligomer complex on erythrocytes (pneumolysin (Ply) [3]; 100 µM PGG, 100 nM Ply, Coomassie-stained SDS-PAGE) | Concentration that still inhibited Ply oligomerization (pneumolysin (Ply) [3]; dilution series of PGG (0–100 µM), Western blotting with anti-His antibody) | inhibition at 0.5 µM (pneumolysin (Ply) [4]; 500 nM PGG, compared to pneumolysin alone) | inhibition at 1 µM (pneumolysin (Ply) [4]; 1000 nM PGG, compared to pneumolysin alone) | inhibition at 2 µM (pneumolysin (Ply) [4]; 2000 nM PGG, compared to pneumolysin alone) | Inhibition of LDH release (pneumolysin (Ply) [4]; ≤250 nM PGG)
1 | O=C(O[C@@H]1Cc2c(O)cc(O)cc2O[C@@H]1c1cc(O)c(O)c(O)c1)c1cc(O)c(O)c(O)c1 [EGCG, epigallocatechin gallate] | micromolar concentrations were required |  |  |  |  |  |  |  |  |  |  |  |  | 
2 | O=C(OC[C@H]1O[C@@H](OC(=O)c2cc(O)c(O)c(O)c2)[C@H](OC(=O)c2cc(O)c(O)c(O)c2)[C@@H](OC(=O)c2cc(O)c(O)c(O)c2)[C@@H]1OC(=O)c1cc(O)c(O)c(O)c1)c1cc(O)c(O)c(O)c1 [PGG, 1,2,3,4,6-penta-O-galloyl-β-D-glucose] |  | 13 | 18 ± 0.7 nM | 10 nM | potent (potent inhibitors (IC50 10–30 nM)) | 14 µM | 58 | 770 fold | abolished | 30 µM | 60% | 87% | 90% | moderate inhibition
